Measured values published in patent US20090018019A1, “INCREASING PATHOGEN DEFENCE IN PLANTS” (priority 2005, published 2009).

Legend:
Experiment in all cases: DNA chip expression analysis of barley leaves after soil treatment
Type in all cases: in vivo
Details in all cases: 10 mg per plant to soil
[1] = test system: Contig2209_at PATHOGENESIS RELATED PROTEIN (HV-1A)
Experimental: (§1) Barley seeds (of the Baroness variety) were sown in pots containing soil about 2 cm deep (1250 g of sandy loam/per pot; the soil moisture content was adjusted to 70% of the maximum water-holding capacity) and cultivated in a climatized chamber under specified light, moisture and temperature conditions (15 h white light, 70% atmospheric humidity, 23-19° C. day/night).
(§2) 14 days after the emergence of the barley plants 10 mg of imidacloprid per plant, dissolved in 100 ml water, were applied by means of a pipette to the soil around the base of the shoot. The same volume of water without any active compound was applied to the control pots. After the soil treatment the plants were no longer watered. At various times after application (0.25; 1; 6; 8; 11; 13; 15; 16 and 17 days) the leaves were harvested, quick-frozen in liquid nitrogen and stored at −80° C. until further treatment.
(§3) The labelled RNA probes for the DNA chip hybridization were produced according to the protocols (Expression Analysis, Technical Manual) of the Affymetrix company (Affymetrix Inc., 3380 Central Expressway, Santa Clara, Calif., USA). Whole RNA was first of all isolated from in each case 500 mg of the harvested leaves. 10 μg portions of whole RNA were used for the first and second strand cDNA synthesis. The cDNA was amplified with T7 polymerase and simultaneously labelled with biotin-UTP. 20 μg portions of this biotinylated cDNA were used for the hybridization of the barley genome array (Barleyl Gene Chip, Item no: 511012) from Affymetrix. This DNA microarray contains DNA sequences of 22840 genes composed of a total of 400000 EST (Expressed Sequence Tag) sequences. Then the DNA microarrays were washed in the Affymetrix Fluidics Station, stained with streptavidin/phycoerythrin (Molecular Probes, P/N S-866) and scanned with the Affymetrix Gene Chip Scanner 3000. The fluorescence data obtained were analyzed with the Microarray Suite 5 software from Affymetrix and the Expressionist Pro software from the GeneData company. After a quality check, all of the DNA chip analyses were stored in a database. Since the Affymetrix Gene Chip System is based on measuring the absolute expression values of the genes contained in the chip, the expression values of the biological replicates of treated and non-treated plants were averaged after normalization (median calculation). With the aid of the statistical ANOVA method, those genes were identified whose expression was increased in the plants treated with imidacloprid but remained relatively constant in the untreated controls. The assembly of gene groups from specific metabolic pathways, signal transduction chains or functions was carried out by a keyword search through the gene annotations supplied by Affymetrix and by linking the genes to their corresponding Gene Ontology Annotations (Gene Ontology Consortium).

[2] = test system: Contig17082_at TRYPSIN INHIBITOR
Experimental: as §1, §2, §3

[3] = test system: Contig2788_x_at THAUMATIN-LIKE PROTEIN TLP7
Experimental: as §1, §2, §3

[4] = test system: Contig11773_at REGULATOR OF PAT[…]
Experimental: as §1, §2, §3

[5] = test system: Contig2211_at PATHOGENESIS-RELATED PROTEIN PRECURSOR
Experimental: as §1, §2, §3

**Q.** `O=[N+]([O-])/N=C1\NCCN1Cc1ccc(Cl)nc1` [imidacloprid] was tested. Which “Induction factor = Expression (treated)/Expression (untreated)” value (“Induction factor = Expression” below) ([1]; 0.25 d) did it give?
**A.** 0.8

**Q.** What about the “Median of the raw expression data, treated” value (shortened to “Median”) ([1]; 0.25 days) of the same compound?
**A.** 187.60

**Q.** What about the “Induction factor = Expression” value ([1]; 1 d) of the same compound?
**A.** 0.6

**Q.** What about the “Median” value ([1]; 1 day) of the same compound?
**A.** 153.35

**Q.** What about the “Induction factor = Expression” value ([1]; 6 d) of the same compound?
**A.** 9.8

**Q.** What about the “Median” value ([1]; 6 days) of the same compound?
**A.** 4773.49

**Q.** And the “Induction factor = Expression” value ([1]; 8 d)?
**A.** 11.5

**Q.** And the “Median” value ([1]; 8 days)?
**A.** 8173.99

**Q.** And the “Induction factor = Expression” value ([1]; 11 d)?
**A.** 12.1

**Q.** And the “Median” value ([1]; 11 days)?
**A.** 8587.82

**Q.** And the “Induction factor = Expression” value ([1]; 13 d)?
**A.** 6.0

**Q.** And the “Median” value ([1]; 13 days)?
**A.** 1723.94

**Q.** What about the “Induction factor = Expression” value ([1]; 15 d) of the same compound?
**A.** 2.7

**Q.** And the “Median” value ([1]; 15 days)?
**A.** 1689.29

**Q.** And the “Induction factor = Expression” value ([1]; 16 d)?
**A.** 2.5

**Q.** What about the “Median” value ([1]; 16 days) of the same compound?
**A.** 2069.04

**Q.** What about the “Induction factor = Expression” value ([1]; 17 d) of the same compound?
**A.** 0.6

**Q.** And the “Median” value ([1]; 17 days)?
**A.** 888.58

**Q.** What about the “Induction factor = Expression” value ([2]; 0.25 d) of the same compound?
**A.** 0.9

**Q.** And the “Median” value ([2]; 0.25 days)?
**A.** 161.42

**Q.** And the “Induction factor = Expression” value ([2]; 1 d)?
**A.** 1.1

**Q.** And the “Median” value ([2]; 1 day)?
**A.** 162.50

**Q.** And the “Induction factor = Expression” value ([2]; 6 d)?
**A.** 3.8

**Q.** What about the “Median” value ([2]; 6 days) of the same compound?
**A.** 745.06

**Q.** And the “Induction factor = Expression” value ([2]; 8 d)?
**A.** 3.7

**Q.** What about the “Median” value ([2]; 8 days) of the same compound?
**A.** 853.21

**Q.** And the “Induction factor = Expression” value ([2]; 11 d)?
**A.** 3.6

**Q.** What about the “Median” value ([2]; 11 days) of the same compound?
**A.** 911.63

**Q.** What about the “Induction factor = Expression” value ([2]; 13 d) of the same compound?
**A.** 2.2

**Q.** And the “Median” value ([2]; 13 days)?
**A.** 281.55

**Q.** And the “Induction factor = Expression” value ([2]; 15 d)?
**A.** 1.5

**Q.** What about the “Median” value ([2]; 15 days) of the same compound?
**A.** 209.34

**Q.** And the “Induction factor = Expression” value ([2]; 16 d)?
**A.** 1.6

**Q.** What about the “Median” value ([2]; 16 days) of the same compound?
**A.** 276.41

**Q.** And the “Induction factor = Expression” value ([2]; 17 d)?
**A.** 1.1

**Q.** And the “Median” value ([2]; 17 days)?
**A.** 225.25

**Q.** And the “Induction factor = Expression” value ([3]; 0.25 d)?
**A.** 0.8

**Q.** And the “Median” value ([3]; 0.25 days)?
**A.** 71.22

**Q.** And the “Induction factor = Expression” value ([3]; 1 d)?
**A.** 0.7

**Q.** What about the “Median” value ([3]; 1 day) of the same compound?
**A.** 70.44

**Q.** And the “Induction factor = Expression” value ([3]; 6 d)?
**A.** 12.2

**Q.** And the “Median” value ([3]; 6 days)?
**A.** 5432.88

**Q.** And the “Induction factor = Expression” value ([3]; 8 d)?
**A.** 8.0

**Q.** And the “Median” value ([3]; 8 days)?
**A.** 7952.61

**Q.** And the “Induction factor = Expression” value ([3]; 11 d)?
**A.** 6.3

**Q.** And the “Median” value ([3]; 11 days)?
**A.** 12190.31

**Q.** What about the “Induction factor = Expression” value ([3]; 13 d) of the same compound?
**A.** 2.3

**Q.** And the “Median” value ([3]; 13 days)?
**A.** 4800.62

**Q.** What about the “Induction factor = Expression” value ([3]; 15 d) of the same compound?
**A.** 1.5

**Q.** And the “Median” value ([3]; 15 days)?
**A.** 4880.14

**Q.** What about the “Induction factor = Expression” value ([3]; 16 d) of the same compound?
**A.** 2.5

**Q.** And the “Median” value ([3]; 16 days)?
**A.** 1836.52

**Q.** What about the “Induction factor = Expression” value ([3]; 17 d) of the same compound?
**A.** 1.2

**Q.** And the “Median” value ([3]; 17 days)?
**A.** 1166.53

**Q.** And the “Induction factor = Expression” value ([4]; 0.25 d)?
**A.** 0.9

**Q.** And the “Median” value ([4]; 0.25 days)?
**A.** 175.49

**Q.** And the “Induction factor = Expression” value ([4]; 1 d)?
**A.** 0.4

**Q.** And the “Median” value ([4]; 1 day)?
**A.** 70.99

**Q.** And the “Induction factor = Expression” value ([4]; 6 d)?
**A.** 7.8

**Q.** And the “Median” value ([4]; 6 days)?
**A.** 1513.72

**Q.** And the “Induction factor = Expression” value ([4]; 8 d)?
**A.** 11.0

**Q.** And the “Median” value ([4]; 8 days)?
**A.** 2102.86

**Q.** What about the “Induction factor = Expression” value ([4]; 11 d) of the same compound?
**A.** 7.4

**Q.** And the “Median” value ([4]; 11 days)?
**A.** 1580.30

**Q.** And the “Induction factor = Expression” value ([4]; 13 d)?
**A.** 3.5

**Q.** And the “Median” value ([4]; 13 days)?
**A.** 208.99

**Q.** And the “Induction factor = Expression” value ([4]; 15 d)?
**A.** 1.9

**Q.** What about the “Median” value ([4]; 15 days) of the same compound?
**A.** 182.27

**Q.** What about the “Induction factor = Expression” value ([4]; 16 d) of the same compound?
**A.** 3.8

**Q.** What about the “Median” value ([4]; 16 days) of the same compound?
**A.** 694.71

**Q.** And the “Induction factor = Expression” value ([4]; 17 d)?
**A.** 2.3

**Q.** What about the “Median” value ([4]; 17 days) of the same compound?
**A.** 340.39

**Q.** And the “Induction factor = Expression” value ([5]; 0.25 d)?
**A.** 1.0

**Q.** And the “Median” value ([5]; 0.25 days)?
**A.** 223.31

**Q.** And the “Induction factor = Expression” value ([5]; 1 d)?
**A.** 1.0

**Q.** What about the “Median” value ([5]; 1 day) of the same compound?
**A.** 206.49

**Q.** What about the “Induction factor = Expression” value ([5]; 6 d) of the same compound?
**A.** 3.1

**Q.** And the “Median” value ([5]; 6 days)?
**A.** 824.50

**Q.** What about the “Induction factor = Expression” value ([5]; 8 d) of the same compound?
**A.** 3.7

**Q.** What about the “Median” value ([5]; 8 days) of the same compound?
**A.** 928.65

**Q.** And the “Induction factor = Expression” value ([5]; 11 d)?
**A.** 3.0

**Q.** And the “Median” value ([5]; 11 days)?
**A.** 868.02

**Q.** And the “Induction factor = Expression” value ([5]; 13 d)?
**A.** 1.8

**Q.** What about the “Median” value ([5]; 13 days) of the same compound?
**A.** 296.99

**Q.** And the “Induction factor = Expression” value ([5]; 15 d)?
**A.** 1.1

**Q.** What about the “Median” value ([5]; 15 days) of the same compound?
**A.** 252.25

**Q.** And the “Induction factor = Expression” value ([5]; 16 d)?
**A.** 1.5

**Q.** And the “Median” value ([5]; 16 days)?
**A.** 340.64

**Q.** And the “Induction factor = Expression” value ([5]; 17 d)?
**A.** 0.8

**Q.** What about the “Median” value ([5]; 17 days) of the same compound?
**A.** 219.24
